Measured values from US20090270278A1, “Methods and compounds for making arrays” (AMBERGEN, Inc., priority 2007, published 2009).

Biological target: T1, protein kinase Cα (PKCα) (Homo sapiens, UniProt P17252)
T1 construct: isolate and photo-release endogenous PKCa from the undiluted detergent fractionated HeLa cell extracts; endogenous in cells; host or cells: HeLa cells (ATCC)
Assay: PMA-mediated PKCα sub-cellular translocation, measured by kinase activity after isolation with photocleavable antibodies
Format: cell-based
Details: cultured HeLa cells stimulated with 200 nM PMA for 5 min, detergent-fractionated, based on kinase activity, n=4
Method: FIG. 20. Phorbol ester (PMA) mediated protein kinase Cα (PKCα) sub-cellular translocation as measured by functional activity following isolation with photocleavable antibodies. Cultured HeLa cells were stimulated with 200 nM PMA for 5 min and detergent fractionated into the cytosol and membrane compartments prior to isolation and purification with the photocleavable antibodies.
Cultured HeLa cells (ATCC; Manassas, Va.) were stimulated for 5 min with 200 nM Phorbol-12-Myristate-13-Acetate (PMA; EMD Biosciences, Inc., San Diego, Calif.) and subsequently detergent fractionated into sub-cellular compartments according to reported procedures [Ramsby et al. (1994) Electrophoresis 15, 265-277; Ramsby & Makowski. (1999) Methods Mol Biol 112, 53-66; Chiang et al. (2000) J Biochem Biophys Methods 46, 53-68]. PMA is a potent activator of PKCα and is well known to cause translocation of the kinase from the cytosolic to the membrane sub-cellular compartments [Ross & Joyner. (1997) Endothelium 5, 321-332; Bazan & Rapoport. (1996) JPharmacol Toxicol Methods 36, 87-95; Yazlovitskaya & Melnykovych. (1995) Cancer Lett 88, 179-183]. […]

Compound: CCCCCCCCCCCCCC(=O)O[C@@H]1[C@@H](C)[C@@]2(O)[C@@H](C=C(CO)C[C@]3(O)C(=O)C(C)=C[C@@H]23)[C@@H]2C(C)(C)[C@]12OC(C)=O [PMA, Phorbol-12-Myristate-13-Acetate]
- relative sub-cellular distribution of PKCα, membrane (baseline 21±2% membrane): 84±3%
- relative sub-cellular distribution of PKCα, cytosol (baseline 79±7% cytosol): 16±4%
